Read-outs that look alike come from different tables or passages of the source.
Key:
[1] = molecular target: CDK4/D1 (Homo sapiens, UniProt P11802); assay: ADP Glo Kinase assay CDK4/D1; type: biochemical; settings: CDK4D1; for Ki: read-out: CDK inhibition, Ki (μM) CDK4D1; for remaining activity at 10 µM: compound at 10 μM, read-out: residual activity (%) at 10 μM CDK4D1
Method in brief: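 In-house ADP-Glo assay: CDK4/D1 or CDK6/D3 with RB-CTF substrate in […] Tris pH 7.5, 20 mM MgCl2, 0.4 mM DTT, 0.1 mg/ml BSA; ATP-started, 40 min at 37° C.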

[2] = molecular target: T1, CDKs and other kinases (Homo sapiens, UniProt P24941); assay: Radiometric kinase assay (Eurofins Pharma Discovery or Reaction Biology Corporation Kinase Profiler); type: biochemical; settings: CDK2A; for Ki: read-out: CDK inhibition, Ki (μM) CDK2A; for remaining activity at 10 µM: compound at 10 μM, read-out: residual activity (%) at 10 μM CDK2A
T1 construct: other: CDK2A; residual activity (%) at 10 μM CDK2A; compound at 10 μM
Method in brief: (§1)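 Other CDKs and further kinases were profiled externally by radiometric assay. In-house ADP Glo assays covered CDK4/D1 and CDK6/D3 (RB-CTF substrate, pH 7.5 Tris buffer with MgCl2, DTT, BSA) and CDK9/T1 (RBER-IRStide substrate), 40 min at 37° C.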

[3] = molecular target: T2, CDKs and other kinases (Homo sapiens, UniProt P06493); assay: as above; type: biochemical; settings: CDK1B; for Ki: read-out: CDK inhibition, Ki (μM) CDK1B; for remaining activity at 10 µM: compound at 10 μM, read-out: residual activity (%) at 10 μM CDK1B
T2 construct: other: CDK1B; residual activity (%) at 10 μM CDK1B; compound at 10 μM
Method in brief: as §1

[4] = molecular target: T3, CDKs and other kinases (Homo sapiens, UniProt P50613); assay: as above; type: biochemical; settings: for remaining activity at 10 µM: compound at 10 μM, read-out: residual activity (%) at 10 μM CDK7H
T3 construct: other: CDK7H; residual activity (%) at 10 μM CDK7H; compound at 10 μM
Method in brief: as §1

[5] = molecular target: CDK9/T1 (Homo sapiens, UniProt P50750); assay: ADP Glo Kinase assay CDK9/T1; type: biochemical
Method in brief: as §1

[6] = test system: leukemia cell lines; assay: Resazurin cell viability assay on leukemia cell lines (72 h growth inhibition, GI50); type: cell-based; settings: Homo sapiens, MV4-11 cells
Method in brief: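 MTT assay for solid tumour lines and resazurin assay for leukaemia lines, run by reported methods. GI50, the concentration giving 50% growth inhibition, was obtained by non-linear regression.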

[7] = molecular target: CDK6/D3 (Homo sapiens, UniProt Q00534); assay: ADP Glo Kinase assay CDK6/D3; type: biochemical; settings: CDK6D3; for remaining activity at 10 µM: compound at 10 μM, read-out: residual activity (%) at 10 μM CDK6D3
Description: Eurofins Pharma Discovery or Reaction Biology Corporation Kinase Profiler services were used to measure inhibition of CDKs and other kinases by radiometric assay. Inhibition of CDK4/D1, CDK6/D3 and CDK9/T1 were also determined in-house using ADP Glo Kinase assays (Promega Corporation, Madison, USA). Briefly, the kinase reaction for CDK4/D1 and CDK6/D3 was performed with kinase reaction buffer ([…] Tris base pH 7.5, 20 mM MgCl2, 0.4 mM DTT), 0.1 mg/ml BSA and RB-CTF substrate (retinoblastoma protein 1 C-terminal fraction). For CDK9/CyclinT1, the kinase reaction was performed with standard assay buffer and Kinase Dilution Buffer and RBER-IRStide substrate. Serial dilutions of 1:3 were prepared for test compounds for 10 concentrations (from 10 μM to 0.5 nM). The kinase reactions were started by addition of ATP, incubated for 40 min at 37° C. and then stopped by adding 10 μL of ADP Glo reagent. After incubation at room temperature in the dark for 40 min, 20 μL of kinase detection reagent was added per well and incubated for 40 min. Luminescence was measured using an EnVision Multilabel plate reader (PerkinElmer, Buckinghamshire, UK). Positive and negative controls were performed in the presence and absence of CDK kinases, respectively. Half-maximal inhibition (IC50) values were calculated using a 4-parameter logistic non-linear regression model with Graphpad prism (Version 6.0). Apparent inhibition constants (Ki) values were calculated from Km (ATP) and IC50 values for the respective kinases.

[8] = CDK7H, read-out: CDK inhibition, Ki (μM) CDK7H
[9] = CDK9T1, read-out: CDK inhibition, Ki (μM) CDK9T1

T3 sequence (P50613 whole entry): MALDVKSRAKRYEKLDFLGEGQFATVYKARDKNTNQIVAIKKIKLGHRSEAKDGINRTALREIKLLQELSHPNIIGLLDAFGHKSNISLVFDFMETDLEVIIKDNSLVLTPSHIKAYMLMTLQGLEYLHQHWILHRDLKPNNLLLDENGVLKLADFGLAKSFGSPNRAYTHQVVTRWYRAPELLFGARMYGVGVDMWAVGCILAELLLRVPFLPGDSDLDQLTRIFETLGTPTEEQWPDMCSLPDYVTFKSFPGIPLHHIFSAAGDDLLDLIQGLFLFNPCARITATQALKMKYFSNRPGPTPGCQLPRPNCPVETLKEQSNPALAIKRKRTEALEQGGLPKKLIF
Sequence of CDK4/D1 (P11802 whole entry): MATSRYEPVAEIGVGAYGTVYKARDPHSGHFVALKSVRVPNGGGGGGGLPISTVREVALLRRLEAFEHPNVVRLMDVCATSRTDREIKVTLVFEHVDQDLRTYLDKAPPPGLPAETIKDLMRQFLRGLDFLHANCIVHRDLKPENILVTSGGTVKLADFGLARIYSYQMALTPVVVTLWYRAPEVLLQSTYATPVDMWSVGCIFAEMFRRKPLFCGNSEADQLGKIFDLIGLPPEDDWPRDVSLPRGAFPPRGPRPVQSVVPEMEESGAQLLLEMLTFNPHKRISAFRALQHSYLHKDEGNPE
Sequence of CDK4/D1 (P24385 whole entry partner): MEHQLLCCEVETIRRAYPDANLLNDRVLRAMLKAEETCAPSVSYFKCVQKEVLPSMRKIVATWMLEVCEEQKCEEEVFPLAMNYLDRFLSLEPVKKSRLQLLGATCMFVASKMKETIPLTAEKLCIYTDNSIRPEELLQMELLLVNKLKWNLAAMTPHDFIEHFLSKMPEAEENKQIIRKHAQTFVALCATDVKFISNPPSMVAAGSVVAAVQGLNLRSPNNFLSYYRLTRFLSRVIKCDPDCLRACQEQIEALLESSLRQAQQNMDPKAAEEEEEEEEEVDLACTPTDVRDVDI
T2 sequence (P06493 whole entry): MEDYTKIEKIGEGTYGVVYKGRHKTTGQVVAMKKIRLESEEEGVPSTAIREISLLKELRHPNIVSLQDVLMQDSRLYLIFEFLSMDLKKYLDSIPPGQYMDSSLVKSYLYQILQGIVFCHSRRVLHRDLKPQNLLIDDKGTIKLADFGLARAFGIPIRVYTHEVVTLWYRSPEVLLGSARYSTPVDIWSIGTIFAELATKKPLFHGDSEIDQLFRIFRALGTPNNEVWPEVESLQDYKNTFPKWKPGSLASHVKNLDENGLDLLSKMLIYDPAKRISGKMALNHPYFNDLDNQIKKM
Sequence of CDK9/T1 (P50750 whole entry): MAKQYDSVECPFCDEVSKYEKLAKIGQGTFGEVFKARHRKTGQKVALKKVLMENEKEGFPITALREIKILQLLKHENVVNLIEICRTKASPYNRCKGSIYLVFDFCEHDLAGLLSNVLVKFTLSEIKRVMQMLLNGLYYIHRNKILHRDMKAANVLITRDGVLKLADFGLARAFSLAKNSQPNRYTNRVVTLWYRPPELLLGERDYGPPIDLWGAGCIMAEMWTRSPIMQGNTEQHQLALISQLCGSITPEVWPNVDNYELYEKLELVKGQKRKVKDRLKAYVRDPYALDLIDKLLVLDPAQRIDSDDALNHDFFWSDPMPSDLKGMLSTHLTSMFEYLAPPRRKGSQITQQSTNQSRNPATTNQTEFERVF
Sequence of CDK9/T1 (O60563 whole entry partner): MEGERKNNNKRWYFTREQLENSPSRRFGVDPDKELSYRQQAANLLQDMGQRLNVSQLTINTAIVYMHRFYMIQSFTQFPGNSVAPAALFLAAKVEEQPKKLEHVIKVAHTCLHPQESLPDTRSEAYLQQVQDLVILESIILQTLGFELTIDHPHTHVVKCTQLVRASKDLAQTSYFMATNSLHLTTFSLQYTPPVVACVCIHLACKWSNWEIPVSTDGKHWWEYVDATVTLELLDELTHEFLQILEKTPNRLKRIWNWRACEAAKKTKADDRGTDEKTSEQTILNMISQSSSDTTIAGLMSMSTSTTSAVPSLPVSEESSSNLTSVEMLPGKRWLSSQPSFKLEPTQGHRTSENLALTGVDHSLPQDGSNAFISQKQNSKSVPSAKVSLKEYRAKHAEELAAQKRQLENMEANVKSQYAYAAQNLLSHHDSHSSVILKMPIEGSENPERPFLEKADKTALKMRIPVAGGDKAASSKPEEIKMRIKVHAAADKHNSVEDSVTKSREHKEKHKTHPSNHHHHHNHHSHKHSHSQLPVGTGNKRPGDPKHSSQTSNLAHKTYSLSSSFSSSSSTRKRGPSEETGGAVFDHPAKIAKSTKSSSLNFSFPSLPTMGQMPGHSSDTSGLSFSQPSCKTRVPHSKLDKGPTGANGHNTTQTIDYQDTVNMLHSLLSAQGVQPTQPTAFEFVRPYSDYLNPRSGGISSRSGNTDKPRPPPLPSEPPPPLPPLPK
Sequence of CDK6/D3 (Q00534 whole entry): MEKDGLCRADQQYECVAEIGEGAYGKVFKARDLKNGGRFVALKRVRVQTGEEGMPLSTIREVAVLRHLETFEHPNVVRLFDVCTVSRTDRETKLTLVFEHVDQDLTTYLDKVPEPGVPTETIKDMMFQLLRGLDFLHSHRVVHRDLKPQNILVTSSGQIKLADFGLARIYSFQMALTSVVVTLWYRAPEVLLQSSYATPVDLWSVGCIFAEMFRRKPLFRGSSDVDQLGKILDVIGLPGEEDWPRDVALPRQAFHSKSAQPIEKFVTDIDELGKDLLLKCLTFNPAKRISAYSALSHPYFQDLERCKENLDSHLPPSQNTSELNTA
Sequence of CDK6/D3 (P30281 whole entry partner): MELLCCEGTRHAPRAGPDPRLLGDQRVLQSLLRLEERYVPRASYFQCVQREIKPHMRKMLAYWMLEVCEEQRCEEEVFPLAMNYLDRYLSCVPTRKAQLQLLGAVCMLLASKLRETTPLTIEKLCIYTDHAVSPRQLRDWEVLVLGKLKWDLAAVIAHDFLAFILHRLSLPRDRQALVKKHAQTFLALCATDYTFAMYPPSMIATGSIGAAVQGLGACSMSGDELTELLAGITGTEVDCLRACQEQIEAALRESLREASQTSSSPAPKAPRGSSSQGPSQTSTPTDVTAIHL

Ki [1] [µM]	Ki [2] [µM]	Ki [3] [µM]	Ki [4, 8] [µM]	Ki [5, 9] [µM]	GI50 [6] [µM]	remaining activity at 10 µM [7] [%]	remaining activity at 10 µM [1] [%]	remaining activity at 10 µM [2] [%]	remaining activity at 10 µM [3] [%]	remaining activity at 10 µM ([4]; CDK7H) [%]	SMILES	Ki [4] [µM]	Ki [5] [µM]	Ki ([7]; read-out: CDK inhibition, Ki (μM) CDK6D3) [µM]
0.025	0.018	0.077	0.026	0.006	0.046 ± 0.005	23	–	–	–	–	N[C@H]1CC[C@H](Nc2ncc(F)c(-c3cnc4ccccn34)n2)CC1 [Compound 1, (1r,4r)-N^1-(5-Fluoro-4-(imidazo[1,2-a]pyridin-3-yl)pyrimidin-2-yl)cyclohexane-1,4-diamine]	–	–	–
–	0.012	0.085	0.034	0.005	0.006 ± 0.001	5	–	–	–	–	N[C@H]1CC[C@H](Nc2ncc(F)c(-c3cnc4ccc(F)cn34)n2)CC1 [Compound 2, (1r,4r)-N^1-(5-Fluoro-4-(6-fluoroimidazo[1,2-a]pyridin-3-yl)pyrimidin-2-yl)cyclohexane-1,4-diamine]	–	–	–
–	0.023	0.084	0.019	0.006	< 0.001	46	0	–	–	–	N[C@H]1CC[C@H](Nc2ncc(F)c(-c3cnc4ccc(C(F)(F)F)cn34)n2)CC1 [Compound 3, (1r,4r)-N^1-(5-Fluoro-4-(6-(trifluoromethyl)imidazo[1,2-a]pyridin-3-yl)pyrimidin-2-yl)cyclohexane-1,4-diamine]	–	–	–
–	–	–	–	0.003	0.004 ± 0.001	2	0	2	1	–	Cc1ccc2ncc(-c3nc(N[C@H]4CC[C@H](N)CC4)ncc3F)n2c1 [Compound 4, (1r,4r)-N^1-(5-Fluoro-4-(6-methylimidazo[1,2-a]pyridin-3-yl)pyrimidin-2-yl)cyclohexane-1,4-diamine]	–	–	–
–	0.006	0.014	0.075	0.002	0.003 ± 0.001	16	0	–	–	–	N[C@H]1CC[C@H](Nc2ncc(F)c(-c3cnc4ccc(-c5ccccc5)cn34)n2)CC1 [Compound 5, (1r,4r)-N^1-(5-Fluoro-4-(6-phenylimidazo[1,2-a]pyridin-3-yl)pyrimidin-2-yl)cyclohexane-1,4-diamine]	–	–	–
–	0.009	0.013	0.016	0.003	0.002 ± 0.0005	16	11	–	–	–	N[C@H]1CC[C@H](Nc2ncc(F)c(-c3cnc4ccc(Nc5ccccc5)cn34)n2)CC1 [Compound 6, (1r,4r)-N^1-(5-Fluoro-4-(6-(phenylamino)imidazo[1,2-a]pyridin-3-yl)pyrimidin-2-yl)cyclohexane-1,4-diamine]	–	–	–
–	0.35	3.81	0.38	0.035	0.066 ± 0.007	34	11	–	–	–	Cc1cnc(N[C@H]2CC[C@H](N)CC2)nc1-c1cnc2ccccn12 [Compound 8, (1r,4r)-N^1-(4-(Imidazo[1,2-a]pyridin-3-yl)-5-methylpyrimidin-2-yl)cyclohexane-1,4-diamine]	–	–	–
–	0.001	–	–	0.029	0.01 ± 0.001	32	–	–	–	50	CS(=O)(=O)N[C@H]1CC[C@H](Nc2ncc(F)c(-c3cnc4ccccn34)n2)CC1 [Compound 16, N-((1r,4r)-4-((5-Fluoro-4-(imidazo[1,2-a]pyridin-3-yl)pyrimidin-2-yl)amino)cyclohexyl)methanesulfonamide]	–	–	–
–	–	–	–	0.2	0.243 ± 0.053	54	61	–	–	–	N[C@H]1CC[C@H](Nc2ncc(-c3ccccc3)c(-c3cnc4ccc(-c5ccccc5)cn34)n2)CC1 [Compound 80, (1r,4r)-N^1-(5-Phenyl-4-(6-phenylimidazo[1,2-a]pyridin-3-yl)pyrimidin-2-yl)cyclohexane-1,4-diamine]	–	–	–
–	–	–	–	0.108	–	89	29	11	20	86	C[C@]12C[C@]3(C)C[C@](O)(C1)C[C@](Nc1ncc(F)c(-c4cnc5ccc(Nc6cncnc6)cn45)n1)(C2)C3 [Compound 111, (1s,3r,5R,7S)-3-((5-Fluoro-4-(6-(pyrimidin-5-ylamino)imidazo[1,2-a]pyridin-3-yl)pyrimidin-2-yl)amino)-5,7-dimethyladamantan-1-ol]	–	–	–
–	–	–	–	0.106	0.885 ± 0.137	86	18	–	–	–	Cc1cnc(N[C@H]2CC[C@H](N)CC2)nc1-c1cnc2ccc(Nc3ccncn3)cn12 [Compound 116, (1r,4r)-N^1-(5-Methyl-4-(6-(pyrimidin-4-ylamino)imidazo [1,2-a]pyridin-3-yl)pyrimidin-2-yl)cyclohexane-1,4-diamine]	–	–	–
–	0.026	0.154	0.018	0.036	–	6	0	–	–	–	N[C@H]1CC[C@H](Nc2ncc(Cl)c(-c3cnc4cc(Nc5cncnc5)ccn34)n2)CC1 [Compound 118, (1r,4r)-N^1-(5-Chloro-4-(7-(pyrimidin-5-ylamino)imidazo [1,2-a]pyridin-3-yl)pyrimidin-2-yl)cyclohexane-1,4-diamine]	–	–	–
2.21	0.86	0.78	3.86	0.032	–	47	–	–	–	–	Cc1cnc(N[C@H]2CC[C@H](NC(C)C)CC2)nc1-c1cnc2ccc(Nc3cncnc3)cn12 [Compound 121, (1r,4r)-N^1-Isopropyl-N^4-(5-methyl-4-(6-(pyrimidin-5-ylamino)imidazo[1,2-a]pyridin-3-yl)pyrimidin-2-yl) cyclohexane-1,4-diamine]	–	–	–
–	1.15	1.71	1.16	0.3	–	44	71	–	–	–	Cc1cnc(N[C@H]2CC[C@H](N)CC2)nc1-c1cnc2ccc(N(C)c3cccnc3)cn12 [Compound 122, (1r,4r)-N^1-(5-Methyl-4-(6-(methyl(pyridin-3-yl)amino)imidazo[1,2-a]pyridin-3-yl)pyrimidin-2-yl)cyclohexane-1,4-diamine]	–	–	–
–	3.94	> 5	4.56	2.88	–	92	100	–	–	–	Cc1cnc(N2CCC3(CCNC3=O)CC2)nc1-c1cnc2ccc(-c3ccccc3)cn12 [Compound 125, 8-(5-Methyl-4-(6-phenylimidazo[1,2-a]pyridin-3-yl)pyrimidin-2-yl)-2,8-diazaspiro[4.5]decan-1-one]	–	–	–

SMILES	Ki [1] [µM]	Ki [2] [µM]	Ki [3] [µM]	Ki [4, 8] [µM]	Ki [5, 9] [µM]	GI50 [6] [µM]	remaining activity at 10 µM [7] [%]	remaining activity at 10 µM [1] [%]	remaining activity at 10 µM [2] [%]	remaining activity at 10 µM [3] [%]	remaining activity at 10 µM ([4]; CDK7H) [%]	Ki [4] [µM]	Ki [5] [µM]	Ki ([7]; read-out: CDK inhibition, Ki (μM) CDK6D3) [µM]
Cc1cnc(N[C@H]2CC[C@H](N3CC3)CC2)nc1-c1cnc2cc(Nc3cncnc3)ccn12 [Compound 119, 3-(2-(((1r,4r)-4-(Aziridin-1-yl)cyclohexyl)amino)-5-methylpyrimidin-4-yl)-N-(pyrimidin-5-yl)imidazo[1,2-a] pyridin-7-amine]	0.64	0.14	0.623	–	–	–	–	–	–	–	–	0.12	0.004	0.54

Reference: patent US11111245B2, “Derivatives of N-cycloalkyl/heterocycloalkyl-4-(imidazo[1,2-a]pyridine)pyrimidin-2-amine as therapeutic agents” (Aucentra Therapeutics Pty Ltd, priority 2017, dated 2021)
